Literature values as cited in paper PMC8583936, “Machine Learning Assisted Approach for Finding Novel High Activity Agonists of Human Ectopic Olfactory Receptors” (International Journal of Molecular Sciences, 2021).
Read-outs that look alike come from different tables or passages of the source.

Legend:
[1] = biological target: T1, OR2W1 (Homo sapiens, UniProt Q9Y3N9); conditions: cited from earlier work
T1 sequence (Q9Y3N9 1-320): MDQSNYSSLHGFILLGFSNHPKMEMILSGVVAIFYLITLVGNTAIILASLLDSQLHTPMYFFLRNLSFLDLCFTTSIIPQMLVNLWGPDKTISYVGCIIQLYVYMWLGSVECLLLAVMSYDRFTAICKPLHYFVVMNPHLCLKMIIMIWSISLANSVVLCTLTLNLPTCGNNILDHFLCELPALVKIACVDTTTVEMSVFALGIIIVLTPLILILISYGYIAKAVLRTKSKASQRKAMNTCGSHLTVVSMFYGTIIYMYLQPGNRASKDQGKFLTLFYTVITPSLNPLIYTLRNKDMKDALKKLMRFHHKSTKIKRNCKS

[2] = biological target: T2, OR1A1 (Homo sapiens, UniProt Q9P1Q5); conditions: cited from earlier work
T2 sequence (Q9P1Q5 1-309): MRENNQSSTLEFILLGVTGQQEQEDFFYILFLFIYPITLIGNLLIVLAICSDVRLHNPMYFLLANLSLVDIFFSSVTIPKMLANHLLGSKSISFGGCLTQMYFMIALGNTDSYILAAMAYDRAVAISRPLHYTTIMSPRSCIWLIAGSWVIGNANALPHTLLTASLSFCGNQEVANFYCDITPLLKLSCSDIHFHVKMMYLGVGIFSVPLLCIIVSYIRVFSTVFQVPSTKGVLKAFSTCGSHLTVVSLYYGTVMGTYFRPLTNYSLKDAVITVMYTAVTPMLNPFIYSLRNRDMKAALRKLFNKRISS

[3] = Table S2, ref Supplement references [2]-[12] as printed after each odorant name
[4] = Table S1, ref Supplement references [1]-[9] as printed after each odorant name

**Q.** What does the source list for `O=C(O)CCc1ccccc1` [3-Phenyl propionic acid]?
**A.** Class (agonist / non-agonist / antagonist / conflicting info.) for OR2W1 [1]: Non-agonist; Class (agonist / non-agonist / conflicting info.) for OR1A1 [2]: Non-agonist

**Q.** With `CCCC(S)CCO` (stereo not shown) [3-Sulfanylhexan-1-ol] as the compound, how does the “Class (agonist / non-agonist / antagonist / conflicting info.) for OR2W1” value [1, 3] read?
**A.** Non-agonist

**Q.** What about the “Class (agonist / non-agonist / conflicting info.) for OR1A1” value [2, 4] of the same compound?
**A.** Non-agonist

**Q.** For `CCc1cccc(O)c1` [3-ethylphenol], which “Class (agonist / non-agonist / antagonist / conflicting info.) for OR2W1” value [1, 3] is on record?
**A.** Non-agonist

**Q.** And the “Class (agonist / non-agonist / conflicting info.) for OR1A1” value [2, 4]?
**A.** Non-agonist

**Q.** For `CCCCC(=O)CC` [3-heptanone], which “Class (agonist / non-agonist / antagonist / conflicting info.) for OR2W1” value [1, 3] is on record?
**A.** Agonist

**Q.** What about the “Class (agonist / non-agonist / conflicting info.) for OR1A1” value [2, 4] of the same compound?
**A.** Agonist

**Q.** For `CC/C=C\CC=O` [3-hexenal, (3z)-], which “Class (agonist / non-agonist / antagonist / conflicting info.) for OR2W1” value [1, 3] is on record?
**A.** Non-agonist

**Q.** And the “Class (agonist / non-agonist / conflicting info.) for OR1A1” value [2, 4]?
**A.** Non-agonist

**Q.** What does the source list for `Cc1cccc(O)c1` [3-methylphenol]?
**A.** Class (agonist / non-agonist / antagonist / conflicting info.) for OR2W1 [1]: Non-agonist; Class (agonist / non-agonist / conflicting info.) for OR1A1 [2]: Non-agonist

**Q.** Which results are given for `CCCCCC(=O)CC` [3-octanone]?
**A.** Class (agonist / non-agonist / antagonist / conflicting info.) for OR2W1 [1, 3]: Agonist; Class (agonist / non-agonist / conflicting info.) for OR1A1 [2, 4]: Agonist

**Q.** What does the source list for `CCC(=O)OCCCc1ccccc1` [3-phenyl propyl propionate]?
**A.** Class (agonist / non-agonist / antagonist / conflicting info.) for OR2W1 [1]: Agonist; Class (agonist / non-agonist / conflicting info.) for OR1A1 [2]: Agonist

**Q.** With `CCC(C)c1nccnc1OC` (stereo not shown) [3-secbutyl-2-methoxypyrazine] as the compound, how does the “Class (agonist / non-agonist / antagonist / conflicting info.) for OR2W1” value [1, 3] read?
**A.** Non-agonist

**Q.** And the “Class (agonist / non-agonist / conflicting info.) for OR1A1” value [2, 4]?
**A.** Non-agonist

**Q.** With `CCCCC(CC)CCC(=O)O` (stereo not shown) [4-Ethyloctanoic acid] as the compound, how does the “Class (agonist / non-agonist / antagonist / conflicting info.) for OR2W1” value [1, 3] read?
**A.** Non-agonist

**Q.** And the “Class (agonist / non-agonist / conflicting info.) for OR1A1” value [2, 4]?
**A.** Non-agonist

**Q.** With `CC(=O)CC(C)(C)S` [4-Mercapto-4-methyl-2-pentanone] as the compound, how does the “Class (agonist / non-agonist / antagonist / conflicting info.) for OR2W1” value [1, 3] read?
**A.** Non-agonist

**Q.** And the “Class (agonist / non-agonist / conflicting info.) for OR1A1” value [2, 4]?
**A.** Non-agonist

**Q.** Which “Class (agonist / non-agonist / antagonist / conflicting info.) for OR2W1” value [1, 3] does the source give for `COC1=C(C)OC(C)C1=O` (stereo not shown) [4-Methoxy-2,5-dimethyl-3(2H)-furanone] here?
**A.** Non-agonist

**Q.** What about the “Class (agonist / non-agonist / conflicting info.) for OR1A1” value [2, 4] of the same compound?
**A.** Non-agonist

**Q.** For `COCCC(C)(C)S` [4-Methoxy-2-methyl-2-butanethiol], which “Class (agonist / non-agonist / antagonist / conflicting info.) for OR2W1” value [1, 3] is on record?
**A.** Non-agonist

**Q.** What about the “Class (agonist / non-agonist / conflicting info.) for OR1A1” value [2, 4] of the same compound?
**A.** Non-agonist

**Q.** Which results are given for `CC(=O)c1ccc(C)cc1` [4-Methyl acetophenone]?
**A.** Class (agonist / non-agonist / antagonist / conflicting info.) for OR2W1 [1, 3]: Agonist; Class (agonist / non-agonist / conflicting info.) for OR1A1 [2, 4]: Non-agonist

**Q.** For `CCCCC(C)CCC(=O)O` (stereo not shown) [4-Methyloctanoic acid], which “Class (agonist / non-agonist / antagonist / conflicting info.) for OR2W1” value [1, 3] is on record?
**A.** Non-agonist

**Q.** And the “Class (agonist / non-agonist / conflicting info.) for OR1A1” value [2, 4]?
**A.** Non-agonist

**Q.** What does the source list for `O=C1CCOc2ccccc21` [4-chromanone]?
**A.** Class (agonist / non-agonist / antagonist / conflicting info.) for OR2W1 [1, 3]: Agonist; Class (agonist / non-agonist / conflicting info.) for OR1A1 [2, 4]: Agonist

**Q.** With `C=Cc1ccc(O)cc1` [4-ethenylphenol] as the compound, how does the “Class (agonist / non-agonist / antagonist / conflicting info.) for OR2W1” value [1, 3] read?
**A.** Non-agonist

**Q.** And the “Class (agonist / non-agonist / conflicting info.) for OR1A1” value [2, 4]?
**A.** Non-agonist

**Q.** With `CCc1ccc(O)cc1` [4-ethylphenol] as the compound, how does the “Class (agonist / non-agonist / antagonist / conflicting info.) for OR2W1” value [1, 3] read?
**A.** Non-agonist

**Q.** What about the “Class (agonist / non-agonist / conflicting info.) for OR1A1” value [2, 4] of the same compound?
**A.** Non-agonist

**Q.** Which results are given for `CC/C=C\CCC=O` [4-heptenal, (4z)-]?
**A.** Class (agonist / non-agonist / antagonist / conflicting info.) for OR2W1 [1, 3]: Non-agonist; Class (agonist / non-agonist / conflicting info.) for OR1A1 [2, 4]: Non-agonist

**Q.** With `O=c1cc(O)c2ccccc2o1` [4-hydroxycoumarin] as the compound, how does the “Class (agonist / non-agonist / antagonist / conflicting info.) for OR2W1” value [1] read?
**A.** Non-agonist

**Q.** What about the “Class (agonist / non-agonist / conflicting info.) for OR1A1” value [2] of the same compound?
**A.** Non-agonist

**Q.** For `Cc1ccc(O)cc1` [4-methylphenol], which “Class (agonist / non-agonist / antagonist / conflicting info.) for OR2W1” value [1, 3] is on record?
**A.** Non-agonist

**Q.** And the “Class (agonist / non-agonist / conflicting info.) for OR1A1” value [2, 4]?
**A.** Non-agonist

**Q.** Which “Class (agonist / non-agonist / antagonist / conflicting info.) for OR2W1” value [1, 3] does the source give for `CCCCC1OC(=O)CC1C` (stereo not shown) [5-Butyl-4-methyloxolan-2-one] here?
**A.** Non-agonist

**Q.** What about the “Class (agonist / non-agonist / conflicting info.) for OR1A1” value [2, 4] of the same compound?
**A.** Non-agonist

**Q.** Which “Class (agonist / non-agonist / antagonist / conflicting info.) for OR2W1” value [1, 3] does the source give for `CCC1OC(=O)C(O)=C1C` (stereo not shown) [5-Ethyl-3-hydroxy-4-methylfuran-2(5H)-one] here?
**A.** Non-agonist

**Q.** What about the “Class (agonist / non-agonist / conflicting info.) for OR1A1” value [2, 4] of the same compound?
**A.** Non-agonist
